Data from publication PMC10158761, “Screening of an annexin‐A2‐targeted heptapeptide for pancreatic adenocarcinoma localization” (Molecular Oncology, 2022).
Entries after “also recorded” stand apart in the source; their conditions may differ. Primed or numbered codes have the meaning given here. Where no end group is shown, it is not given here. The star is where a group is joined. FITC = O=C1OC2(c3ccc(O)cc3Oc3cc(O)ccc32)c2ccc(NC(=S)*)cc21; PEG3′ = not defined here; Ahx = NCCCCCC(=O)O

Tests used:
PANC‐1 cells = test: Fluorescence imaging of PANC‐1 cells with labelled YW7 probes; type: cell-based, human; details: 1, 2, 4 μM, 1 h; red filter 700–780 nm
Method: (§1) PANC‐1 and HPDE6‐C7 cells were seeded in six‐well plates at a density of 3 × 10^5 cells·mL^−1 and incubated overnight. The cells were incubated with 25 μM FITC‐YW7 for 30 min and 1 h for flow cytometry analysis of bound and internalized peptide, and cells were incubated with 1, 2, 4 μM FITC‐YW7 or Cy7‐YW7 for 1 h for fluorescence imaging of the live cells. Cells were washed with PBS three times and centrifuged for 5 min after 37 °C incubation. Si‐ANXA2‐ or si‐NC‐transfected PANC‐1 cells were detached with nonenzymatic dissociation solution from six‐well plates. 20 μM FITC‐YW7 was added to the suspended cells and incubated at 37 °C for 15 min. Cells were washed with PBS and centrifuged for 5 min repeating three times. The supernatant was then discarded and the cells were resuspended in PBS. Percent of total cells with fluorescent signals was determined by flow cytometry using a FACSCelesta flow cytometer (BD Biosciences, San Jose, CA, USA). Fluorescence intensity was quantified by an imaging system (Berthold LB983, Bad Wildbad, Sttugart, Germany).
(§2) Supplementary file MOL2-17-872-s002.tif: Fig. S3. Fluorescent‐labeled YW7 probes imaging in vitro. […] P values were determined using paired Student's t‐test. *P < 0.05 versus HPDE6‐C7 (Cy7‐YW7); ^# P < 0.05, ^## P < 0.01 versus PBS; ^$ P < 0.05, ^$$ P < 0.01 versus Cy7. […]

[1] = test system: PANC‐1 and HPDE6‐C7 cells; test: Fluorescence imaging, PANC‐1 versus HPDE6‐C7 cells; type: cell-based, human
Method: as §1, §2

PANC‐1 xenograft tumors = test: In vivo NIRF imaging of PANC‐1 xenograft mice; set-up: species or system mouse (BALB/c nude)
From the text: During imaging, mice were anesthetized with 2% isoflurane.

[2] = test system: ANXA2 (purified recombinant); test: ANXA2 affinity column binding with LC/MS detection; details: ANXA2 0.7 mg on CNBr‐activated Sepharose; 1 mg YW7; 1 h at 4 °C; UPLC‐G2XS‐QTOF/MS
Method: To prepare the ANXA2‐immobilized affinity column, CNBr‐activated Sepharose (GE Healthcare Bio‐Sciences AB, Uppsala, Sweden) was swelled by 1 mM HCl and coupling buffer. Purified recombinant ANXA2 of 0.7 mg was loaded onto the resin and incubated at 4 °C overnight. After blocking with ethanolamine, the resin was washed with 50 mM Tris–HCl (pH 8.0) and 50 mM Glycine‐0.5 M NaCl (pH 4.0) buffers alternatively for three rounds. Then, the resin was washed with PBS and 1 mg YW7 dissolved in DEPC was added to the ANXA2‐loaded resin. After binding for 1 h at 4 °C, the resin was washed again with 50 mM Tris–HCl (pH 8.0) and 50 mM Glycine‐0.5 M NaCl (pH 4.0) buffers. Eluents were eventually mixed with 50% acetonitrile and analyzed by UPLC‐G2XS‐QTOF/MS (Waters, Milford, MA, USA).

ANXA2 = test: siRNA knockdown of ANXA2 in PANC‐1 cells (western blotting, qPCR); type: cell-based, human; details: 48 h after transfection, lipofectamine 3000; n = 3
Method: ANXA2 expression in human cells and patients' tissues was determined by western blotting. Cells were lysed on ice in RIPA Lysis Buffer (Beyotime, Shanghai, China) with 1% PMSF for 30 min. Fresh tissues were suspended in RIPA Lysis Buffer with 1% PMSF, homogenized for 2 min, and then lysed on ice for another 30 min. The supernatant was collected and the protein concentration was determined after centrifuging for 10 min at 8000 g . The protein concentration was detected by BCA Protein Assay Kit (Beyotime). Proteins extracts were separated by 12% SDS/PAGE gel and then transferred to the PVDF membranes. Next, the membranes were blocked with 5% skimmed milk powder at room temperature for 1 h. Rabbit primary antibodies specific to ANXA2 (1 : 1000; Cell Signaling Technology, Billerica, CA, USA; #8235S) were used to incubate the membranes at 4 °C overnight. Anti‐β‐tubulin mouse primary antibodies (1 : 5000; EarthOx Life Science, Millbrae, CA, USA; E021040‐01) were applied as a loading control. […] The band density was quantified by IMAGEJ software (National Institutes of Health, Bethesda, MD, USA).
Small interfering RNA (primer sequences: forward 5′‐[…]‐3′ and reverse 5′‐[…]‐3′) was used to downregulate the expression of ANXA2 (si‐ANXA2). […] Knockdown efficiency was evaluated by western blotting and quantitative real‐time PCR. […]

[3] = biological target: T1, ANXA2 on pancreatic cells (human (endogenous in PANC-1 and …, UniProt P07355 1-339)); test: other fluorescence titration; PANC-1 cells suspended in FITC-YW7 (0-1.5 μM), 37 °C, 30 min; washed with PBS; fluorescence of the cells read in a plate reader (490/518 nm); apparent Kd; details: one partner purified
T1 construct: annexin A2, endogenous in the human pancreatic cancer cell line PANC-1 and the normal human pancreatic ductal cell line HPDE6-C7; which cell line was used is told in each assay's format; also called annexin A2; source: endogenous, on PANC-1 cells; endogenous, on HPDE6-C7 cells

[4] = biological target: T2, GST-fused ANXA2 recombinant protein (UniProt P07355 1-339); test: MST; FITC-YW7 at constant concentration, unlabeled ANXA2 diluted in a gradient; MST buffer with 0.05% Tween-20; Monolith NT.115, standard capillaries; apparent KD; details: both partners purified
T2 construct: product of 62 kD with GST; No cleavage of GST is described; The size of 62 kD would fit whole ANXA2 (36 kD) plus GST; also called GST-ANXA2; annexin A2; source: E. coli BL21 (DE3), purified (GST tag purification resin)
T2 sequence (P07355 whole entry, the tested form may be a part): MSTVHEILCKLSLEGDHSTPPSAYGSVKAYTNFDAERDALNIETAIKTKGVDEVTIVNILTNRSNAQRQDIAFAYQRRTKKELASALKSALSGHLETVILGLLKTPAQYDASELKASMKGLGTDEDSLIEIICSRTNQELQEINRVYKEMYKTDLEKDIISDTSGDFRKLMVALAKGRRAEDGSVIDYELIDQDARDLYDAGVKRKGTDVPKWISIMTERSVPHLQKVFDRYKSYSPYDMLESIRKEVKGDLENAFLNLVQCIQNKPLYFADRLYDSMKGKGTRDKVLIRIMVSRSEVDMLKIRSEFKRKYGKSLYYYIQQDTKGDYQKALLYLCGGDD

T1 sequence (P07355 whole entry): as the sequence (P07355 whole entry, the tested form may be a part) above

Cy7‐YW7: Cy7 linked to the N terminal of YW7 peptide via spacer of PEG3; NIRF probe ({Cy7-PEG3′}-YWRGVYN)
internalization by PANC‐1 cells, concentration dependence (PANC‐1 cells): preferred to be internalized by PANC‐1 cells in a dose‐dependent manner
fluorescence signal, PANC‐1 versus HPDE6‐C7 ([1]; 4 μM in PBS): stronger fluorescence signal of Cy7‐YW7 was detected after internalization into PANC‐1 cells compared to HPDE6‐C7
uptake in PANC‐1 compared to HPDE6‐C7 cells ([1]; summary statement of abstract): significantly higher uptake in PANC‐1 cells
TBR, as quoted in discussion (PANC‐1 xenograft tumors; 8 nmol i.v.): ~ 2.7
earliest time of significant tumor‐to‐background contrast (PANC‐1 xenograft tumors; 8 nmol i.v.): 1 h
tumor‐to‐background ratio (TBR) (PANC‐1 xenograft tumors; 8 nmol i.v., 2.5 h after injection, n = 4, mean ± SD, P < 0.05 Cy7‐YW7 vs Cy7): 2.7 ± 0.6
tumor fluorescence / contrast (PANC‐1 xenograft tumors; 8 nmol i.v., Cy7‐YW7 versus Cy7, n = 4): stronger fluorescence signals in tumor tissues; also recorded: higher than Cy7; also recorded: enhanced tumor sensitivity and specificity from 1 h after injection
time of highest TBR after injection (PANC‐1 xenograft tumors; 8 nmol i.v., images at 0, 1, 2, 2.5, 3 h): 2.5 h
TBR compared to Cy7 alone (PANC‐1 xenograft tumors; intravenous injection, in abstract): ~ 2.7 ‐fold

YWRGVYN [YW7]
binding to ANXA2 column [2]: eluted from ANXA2‐loading column after incubation with ANXA2 recombinant protein for 1 h and identified

si‐ANXA2: Small interfering RNA, forward 5′‐AGACCAAAGGUGUGGAUGAUU‐3′ and reverse 5′‐UCAUCCACACCUUUGGUCUUU‐3′ (chemistry not fully specified)
ANXA2 protein and mRNA level after knockdown (ANXA2): Downregulated ANXA2 relative protein (D, E) and mRNA (F) levels

B1: FITC-labeled YW7 (peptide)
peptide: {FITC-Ahx}-YWRGVYN
notes: heptapeptide YW7 selected from the Ph.D.-7 phage display library; also called FITC-YW7; source: synthetic peptide, Sangon Biotech
Kd [3]: 0.0866 µM
Kd [4]: 12 µM
